Format in all cases: cell-based
In assay [1] the test system is Pseudocercoporella herpotrichoides. As to the kind of experiment: Plate medium fungicidal assay, wheat eye spot P.h (Experimental Example 5). On the procedure:
(§1) In this Experimental Example, the fungicidal effects of the inventive compounds on various phytopathogenic fungi for plants and hazardous microorganism for industrial materials were examined by the methods described below. Each inventive compound was dissolved in 2 ml of dimethyl sulfoxide. 0.6 ml of this solution was added to 60 nil of a PDA medium (potato dextrose agar medium) at about 60 degrees C., which was mixed thoroughly in a 100-ml conical flask, and poured into a dish, where it was solidified, thereby obtaining a plate medium containing the inventive compound at 50 mg/L and 5 mg/L. On the other hand, a subject microorganism previously cultured on a plate medium was cut out using a cork borer whose diameter was 4 mm, and inoculated to the test compound-containing plate medium described above. […] The growth degree of the microorganism on the test compound-containing plate medium thus observed was compared with the growth degree of the microorganism in the untreated group, and % mycelial growth inhibition was calculated by the following equation. R=100(dc−dt)/dc wherein R=% mycelial extension inhibition, dc=flora diameter in untreated plate, dt=flora diameter in treated plate. The results obtained as described above were evaluated as one of the 5 grades according to the following criteria. […] Wheat eye spot (Pseudocercoporella herpotrichoides) P.h

A further assay relates to Fusarium graminearum. Briefly: microbe, parasite or virus in culture. The note with it: for Growth inhibition grade, F.g: plate medium; for inhibition at 5 µg/mL / inhibition at 50 µg/mL: Fusarium graminearum.
A further assay has as its system Giberella fujikuroi. As to the kind of experiment: Plate medium fungicidal assay, rice bakanae disease G.f (Experimental Example 5). On the procedure: as §1, with “Rice bakanae disease (Giberella fujikuroi) G.f” for “Wheat eye spot (Pseudocercoporella herpotrichoides) P.h”
In the next assay the test system is Botritis cinerea. Briefly: Plate medium fungicidal assay, gray mold B.c (Experimental Example 5). On the procedure:
as §1, with “Gray mold (Botritis cinerea) B.c” for “Wheat eye spot (Pseudocercoporella herpotrichoides) P.h”

The subject of the next assay is Sclerotinia sclerotiorum. Briefly: Plate medium fungicidal assay, Sclerotinia rot S.s (Experimental Example 5). The conditions noted are these: for inhibition at 5 µg/mL / inhibition at 50 µg/mL: Sclerotinia sclerotiorum. On the procedure:
as §1, with “Sclerotinia rot (Sclerotinia sclerotiorum) S.s” for “Wheat eye spot (Pseudocercoporella herpotrichoides) P.h”

A further assay has as its system Rhynchosporium secalis. As to the kind of experiment: Plate medium fungicidal assay, barley leaf blotch R.sec (Experimental Example 5). The conditions noted are these: for inhibition at 5 µg/mL / inhibition at 50 µg/mL: Rhynchosporium secalis. On the procedure:
as §1, with “Barley leaf blotch (Rhynchosporium secalis) R.sec” for “Wheat eye spot (Pseudocercoporella herpotrichoides) P.h”

Where [2] appears, read: plate medium, 5 mg/L, read-out: growth inhibition grade P.h.
Setting [3] is: plate medium, 50 mg/L, read-out: growth inhibition grade P.h.
[4] abbreviates: read-out: Growth inhibition grade, F.g.
Setting [5] is: read-out: growth inhibition grade F.g.
Where [6] appears, read: plate medium, 5 mg/L, read-out: growth inhibition grade G.f.
Setting [7] is: plate medium, 50 mg/L, read-out: growth inhibition grade G.f.
Where [8] appears, read: plate medium, 5 mg/L, read-out: growth inhibition grade B.c.
Where [9] appears, read: plate medium, 50 mg/L, read-out: growth inhibition grade B.c.
Setting [10] is: plate medium, 5 mg/L, read-out: growth inhibition grade S.s.
Where [11] appears, read: plate medium, 50 mg/L, read-out: growth inhibition grade S.s.
[12] abbreviates: plate medium, 5 mg/L, read-out: growth inhibition grade R.sec.
Where [13] appears, read: plate medium, 50 mg/L, read-out: growth inhibition grade R.sec.

Where two headings read alike, the source gives them in different places. Bounds are passed on as bounds.

A word on the inhibition: it is the share of the control response that was lost under treatment.

As for `C[C@]1(CCl)CC[C@H](Cc2cccc(Cl)c2)[C@]1(O)Cn1cncn1` (relative stereo) [Compound I-374], the “Growth inhibition grade, P.h” value is on record as 5 (% Mycerial growth inhibition of 80% or higher) in assay [1] (plate medium, 5 mg/L) and 5 (% Mycerial growth inhibition of 80% or higher) in assay [1] (plate medium, 50 mg/L). Also, the “Growth inhibition grade, F.g” value with Fusarium graminearum (5 mg/L) and in the assay with Fusarium graminearum (50 mg/L) was 5 (% Mycerial growth inhibition of 80% or higher) in each case. In addition, the “Growth inhibition grade, G.f” value in the assay with Giberella fujikuroi (plate medium, 5 mg/L) is recorded as 5 (% Mycerial growth inhibition of 80% or higher); in the assay with Giberella fujikuroi (plate medium, 50 mg/L), 5 (% Mycerial growth inhibition of 80% or higher). For the same molecule, the “Growth inhibition grade, B.c” value was 5 (% Mycerial growth inhibition of 80% or higher) with Botritis cinerea (plate medium, 5 mg/L) and 5 (% Mycerial growth inhibition of 80% or higher) in the assay with Botritis cinerea (plate medium, 50 mg/L). Moreover, the “Growth inhibition grade, S.s” value is given as 5 (% Mycerial growth inhibition of 80% or higher) in the assay on Sclerotinia sclerotiorum (plate medium, 5 mg/L) and 5 (% Mycerial growth inhibition of 80% or higher) in the assay with Sclerotinia sclerotiorum (plate medium, 50 mg/L). Also, the “Growth inhibition grade, R.sec” value is on record as 5 (% Mycerial growth inhibition of 80% or higher) with Rhynchosporium secalis (plate medium, 5 mg/L) and 5 (% Mycerial growth inhibition of 80% or higher) with Rhynchosporium secalis (plate medium, 50 mg/L).

As for `C[C@]1(CCl)CC[C@@H](Cc2ccc(F)cc2)[C@]1(O)Cn1cncn1` (racemic) [Compound I-77, (1RS,2SR,5SR)-2-chloromethyl-5-(4-fluorobenzyl)-2-methyl-1-(1H-1,2,4-triazol-1-ylmethyl)cyclopentanol], the inhibition at 5 µg/mL in assay [1] (plate medium containing compound at 5 mg/L, read-out: Growth inhibition grade, P.h) is > 80%; in assay [1] (setting [2]) it was > 80%; in the assay with Fusarium graminearum (setting [4]) it was > 80%; with Fusarium graminearum (setting [5]), > 80%; with Giberella fujikuroi (plate medium containing compound at 5 mg/L, read-out: Growth inhibition grade, G.f) it was > 80%; in the assay on Giberella fujikuroi (setting [6]) it was > 80%. For the same molecule, the inhibition at 5 µg/mL in the assay with Botritis cinerea (plate medium containing compound at 5 mg/L, read-out: Growth inhibition grade, B.c) is > 80%; with Botritis cinerea (setting [8]), > 80%; in the assay with Sclerotinia sclerotiorum (plate medium containing compound at 5 mg/L, read-out: Growth inhibition grade, S.s) it was > 80%; in the assay on Sclerotinia sclerotiorum (setting [10]), > 80%; in the assay on Rhynchosporium secalis (plate medium containing compound at 5 mg/L, read-out: Growth inhibition grade, R.sec), > 80%; with Rhynchosporium secalis (setting [12]) it was > 80%. For the same molecule, the inhibition at 50 µg/mL was > 80% in assay [1] (plate medium containing compound at 50 mg/L, read-out: Growth inhibition grade, P.h); > 80% in assay [1] (setting [3]); > 80% in the assay on Fusarium graminearum (setting [4]); > 80% in the assay on Fusarium graminearum (setting [5]); > 80% in the assay on Giberella fujikuroi (plate medium containing compound at 50 mg/L, read-out: Growth inhibition grade, G.f); > 80% in the assay on Giberella fujikuroi (setting [7]). Further, the inhibition at 50 µg/mL with Botritis cinerea (plate medium containing compound at 50 mg/L, read-out: Growth inhibition grade, B.c) was > 80%; in the assay with Botritis cinerea (setting [9]) it was > 80%; in the assay with Sclerotinia sclerotiorum (plate medium containing compound at 50 mg/L, read-out: Growth inhibition grade, S.s) it was > 80%; in the assay with Sclerotinia sclerotiorum (setting [11]), > 80%; with Rhynchosporium secalis (plate medium containing compound at 50 mg/L, read-out: Growth inhibition grade, R.sec), > 80%; in the assay on Rhynchosporium secalis (setting [13]) it was > 80%.

On to `CC1(C)CCC(Cc2ccc(Cl)cc2)C1(O)Cn1ncnc1S` (racemic) [compound (2)], for which the “Growth inhibition grade, P.h” value in assay [1] (plate medium, 5 mg/L) is 2 (% Mycerial growth inhibition of less than 40 to 20% or higher); in assay [1] (plate medium, 50 mg/L), 4 (% Mycerial growth inhibition of less than 80 to 60% or higher). For the same molecule, the “Growth inhibition grade, F.g” value is listed as 3 (% Mycelial growth inhibition of less than 60 to 40% or higher) in the assay on Fusarium graminearum (5 mg/L) and 5 (% Mycerial growth inhibition of 80% or higher) in the assay with Fusarium graminearum (50 mg/L). The “Growth inhibition grade, G.f” value is given as 3 (% Mycelial growth inhibition of less than 60 to 40% or higher) in the assay with Giberella fujikuroi (plate medium, 5 mg/L) and 4 (% Mycerial growth inhibition of less than 80 to 60% or higher) in the assay with Giberella fujikuroi (plate medium, 50 mg/L). Further, the “Growth inhibition grade, B.c” value in the assay on Botritis cinerea (plate medium, 5 mg/L) is 2 (% Mycerial growth inhibition of less than 40 to 20% or higher); in the assay with Botritis cinerea (plate medium, 50 mg/L), 5 (% Mycerial growth inhibition of 80% or higher). Further, the “Growth inhibition grade, S.s” value in the assay with Sclerotinia sclerotiorum (plate medium, 5 mg/L) is listed as 3 (% Mycelial growth inhibition of less than 60 to 40% or higher); in the assay with Sclerotinia sclerotiorum (plate medium, 50 mg/L) it was 5 (% Mycerial growth inhibition of 80% or higher). Also, the “Growth inhibition grade, R.sec” value was 5 (% Mycerial growth inhibition of 80% or higher) with Rhynchosporium secalis (plate medium, 5 mg/L) and 5 (% Mycerial growth inhibition of 80% or higher) with Rhynchosporium secalis (plate medium, 50 mg/L).

For the molecule `O[C@]1(Cn2cncn2)[C@@H](Cc2ccc(Cl)cc2)CC[C@@H]1C(F)(F)F` (racemic) [Compound I-365, (1RS,2SR,5RS)-5-(4-chlorobenzyl)-2-trifluoromethyl-1-(1H-1,2,4-triazol-1-ylmethyl)cyclopentanol], the inhibition at 5 µg/mL in assay [1] (setting [2]) was 20 to 40%; in the assay on Fusarium graminearum (setting [5]) it was 20 to 40%; with Giberella fujikuroi (setting [6]) it was < 20%; in the assay on Botritis cinerea (setting [8]), < 20%; in the assay on Sclerotinia sclerotiorum (setting [10]), 20 to 40%; with Rhynchosporium secalis (setting [12]), 20 to 40%. The inhibition at 50 µg/mL (in assay [1] (setting [3]); in the assay on Fusarium graminearum (setting [5]); with Giberella fujikuroi (setting [7]); in the assay on Botritis cinerea (setting [9]); in the assay with Sclerotinia sclerotiorum (setting [11]); in the assay on Rhynchosporium secalis (setting [13])) was > 80% throughout.
